2 compounds from patent publication US11807640B1 (priority 2023, dated 2023) can be followed below.

The subject of assay [1] is XDR-MTB (Extensively drug-resistant Mycobacterium tuberculosis). The assay is described as follows: microbe, parasite or virus in culture. Format: cell-based. The conditions noted are these: 192 h, read-out: MIC (μg/mL) XDR-MTB.
The subject of assay [2] is MDR-MTB (Multidrug-resistant Mycobacterium tuberculosis). Nature of the assay: microbe, parasite or virus in culture. In kind it is cell-based. The conditions noted are these: 192 h, read-out: MIC (μg/mL) MDR-MTB.

Converted amounts (≈) assume the structure as drawn.

For the compound `COC(=O)c1c(C(=O)OC)c2cc(C(=O)OC(C)C)ccn2c1C(=O)c1ccc(Br)cc1` [KNV-7, 7-Isopropyl 1,2-dimethyl 3-(4-bromobenzoyl)indolizine-1,2,7-tricarboxylate], the MIC in assay [1] and in assay [2] was 8 µg/mL (≈ 15.9 µM) in each case.

Consider `CCOC(=O)c1cc(C(=O)c2ccc(F)cc2)n2ccc(C(=O)OC(C)C)cc12` [KNV-4, 1-Ethyl 7-isopropyl 3-(4-fluorobenzoyl)indolizine-1,7-dicarboxylate], for which the figures for the MIC in assay [1] and in assay [2] were 32 µg/mL (≈ 80.5 µM) and 4 µg/mL (≈ 10.1 µM), respectively.
